{"source": "patent US11945836B2", "about": "“Compositions and methods for treating CNS disorders” (Sage Therapeutics, Inc., priority 2014, dated 2024)", "data": [{"molecular_target": "rat brain cortical membranes ([35S]-TBPS binding)", "experiment": "Steroid inhibition of [35S]-TBPS binding (radioligand displacement)", "conditions": "3 nM [35S]-TBPS, in the presence of 5 μM GABA", "method": "Steroid Inhibition of TBPS Binding\nTBPS binding assays using rat brain cortical membranes in the presence of 5 μM GABA has been described (Gee et al, J. Pharmacol. Exp. Ther. 1987, 241, 346-353; Hawkinson et al, Mol. Pharmacol. 1994, 46, 977-985; Lewin, A. H et al., Mol. Pharmacol. 1989, 35, 189-194).\nBriefly, cortices are rapidly removed following decapitation of carbon dioxide-anesthetized Sprague-Dawley rats (200-250 g). The cortices are homogenized in 10 volumes of ice-cold 0.32 M sucrose using a glass/teflon homogenizer and centrifuged at 1500×g for 10 min at 4° C. The resultant supernatants are centrifuged at 10,000×g for 20 min at 4° C. to obtain the P2 pellets. The P2 pellets are resuspended in 200 mM NaCl/50 mM Na—K phosphate pH 7.4 buffer and centrifuged at 10,000×g for 10 min at 4° C. This washing procedure is repeated twice and the pellets are resuspended in 10 volumes of buffer. Aliquots (100 uL) of the membrane suspensions are incubated with 3 nM [^35S]-TBPS and 5 μL aliquots of test drug dissolved in dimethyl sulfoxide (DMSO) (final 0.5%) in the presence of 5 μM GABA. The incubation is brought to a final volume of 1.0 mL with buffer. […] Following a 90 min incubation at room temp, the assays are terminated by filtration through glass fiber filters (Schleicher and Schuell No. 32) using a cell harvester (Brandel) and rinsed three times with ice-cold buffer. Filter bound radioactivity is measured by liquid scintillation spectrometry. Non-linear curve fitting of the overall data for each drug averaged for each concentration is done using Prism (GraphPad). […] The concentration of test compound producing 50% inhibition (IC50) of specific binding and the maximal extent of inhibition (Imax) are determined for the individual experiments with the same model used for the overall data and then the means±SEMs of the individual experiments are calculated.\nVarious compounds are or can be screened to determine their potential as modulators of [^35S]-TBPS binding in vitro. These assays are or can be performed in accordance with the above discussed procedures.", "units": {"IC50": "nM"}, "values": [{"smiles": "C[C@@]1(O)CC[C@H]2[C@H](CC[C@@H]3[C@@H]2CC[C@]2(C)[C@@H](C(=O)c4nc5ccccc5s4)CC[C@@H]32)C1", "note": "[Compound 8]", "IC50": "> 100"}, {"smiles": "C[C@@]1(O)CC[C@H]2[C@H](CC[C@@H]3[C@@H]2CC[C@]2(C)[C@@H](C(=O)c4ccccn4)CC[C@@H]32)C1", "note": "[Compound 60]", "IC50": "> 100"}, {"smiles": "CN(C)c1ccc(C(=O)[C@H]2CC[C@H]3[C@@H]4CC[C@H]5C[C@](C)(O)CC[C@@H]5[C@H]4CC[C@]23C)cc1", "note": "[Compound 111]", "IC50": "> 100"}, {"smiles": "C[C@@]1(O)CC[C@@]2(C)[C@H](CC[C@@H]3[C@@H]2CC[C@]2(C)[C@@H](C(=O)c4cccc(F)c4)CC[C@@H]32)C1", "note": "[Compound 83]", "IC50": "20 to 50"}, {"smiles": "COc1ccc(C(=O)[C@H]2CC[C@H]3[C@@H]4CC[C@@H]5C[C@](C)(O)CC[C@]5(C)[C@H]4CC[C@]23C)c(C)c1", "note": "[Compound 33]", "IC50": "> 100"}, {"smiles": "CSc1ccc(C(=O)[C@H]2CC[C@H]3[C@@H]4CC[C@@H]5C[C@](C)(O)CC[C@]5(C)[C@H]4CC[C@]23C)cc1", "note": "[Compound 48]", "IC50": "20 to 50"}, {"smiles": "COc1ccc(C(=O)[C@H]2CC[C@H]3[C@@H]4CC[C@H]5C[C@](C)(O)CC[C@]5(C)[C@H]4CC[C@]23C)c(C)c1", "note": "[Compound 132]", "IC50": "> 100"}, {"smiles": "C[C@@]1(O)CC[C@H]2[C@@H](CC[C@@H]3[C@@H]2CC[C@]2(C)[C@@H](C(=O)c4ccc(-c5ccccc5)cc4)CC[C@@H]32)C1", "note": "[Compound 58]", "IC50": "50 to 100"}, {"smiles": "Cc1ccc(C(=O)[C@H]2CC[C@H]3[C@@H]4CC[C@H]5C[C@](C)(O)CC[C@]5(C)[C@H]4CC[C@]23C)cc1F", "note": "[Compound 45]", "IC50": "> 100"}, {"smiles": "C[C@@]1(O)CC[C@H]2[C@H](CC[C@@H]3[C@@H]2CC[C@]2(C)[C@@H](C(=O)c4ccccc4)CC[C@@H]32)C1", "note": "[Compound 1]", "IC50": "< 20"}, {"smiles": "COc1cc(OC)cc(C(=O)[C@H]2CC[C@H]3[C@@H]4CC[C@@H]5C[C@](C)(O)CC[C@@H]5[C@H]4CC[C@]23C)c1", "note": "[Compound 130]", "IC50": "20 to 50"}, {"smiles": "C[C@@]1(O)CC[C@H]2[C@H](CC[C@@H]3[C@@H]2CC[C@]2(C)[C@@H](C(=O)c4cccnc4)CC[C@@H]32)C1", "note": "[Compound 70]", "IC50": "50 to 100"}, {"smiles": "COc1cccc(C(=O)[C@H]2CC[C@H]3[C@@H]4CC[C@H]5C[C@](C)(O)CC[C@@H]5[C@H]4CC[C@]23C)c1", "note": "[Compound 71]", "IC50": "> 100"}, {"smiles": "Cn1nccc1C(=O)[C@H]1CC[C@H]2[C@@H]3CC[C@@H]4C[C@](C)(O)CC[C@@H]4[C@H]3CC[C@]12C", "note": "[Compound 9]", "IC50": "20 to 50"}, {"smiles": "Cc1cc(C)cc(C(=O)[C@H]2CC[C@H]3[C@@H]4CC[C@@H]5C[C@](C)(O)CC[C@@H]5[C@H]4CC[C@]23C)c1", "note": "[Compound 16]", "IC50": "< 20"}, {"smiles": "Cc1ccc(C(=O)[C@H]2CC[C@H]3[C@@H]4CC[C@@H]5C[C@](C)(O)CC[C@]5(C)[C@H]4CC[C@]23C)cc1", "note": "[Compound 89]", "IC50": "50 to 100"}, {"smiles": "C[C@@]1(O)CC[C@@]2(C)[C@H](CC[C@@H]3[C@@H]2CC[C@]2(C)[C@@H](C(=O)c4ccccc4)CC[C@@H]32)C1", "note": "[Compound 28]", "IC50": "20 to 50"}, {"smiles": "Cc1cc(C(=O)[C@H]2CC[C@H]3[C@@H]4CC[C@@H]5C[C@](C)(O)CC[C@@H]5[C@H]4CC[C@]23C)ccc1F", "note": "[Compound 26]", "IC50": "20 to 50"}, {"smiles": "COC[C@]12CC[C@@](C)(O)C[C@@H]1CC[C@H]1[C@@H]3CC[C@H](C(=O)c4cc(C)cc(C)c4)[C@@]3(C)CC[C@@H]12", "note": "[Compound 93]", "IC50": "50 to 100"}, {"smiles": "COC[C@]12CC[C@@](C)(O)C[C@@H]1CC[C@H]1[C@@H]3CC[C@H](C(=O)c4cccc(OC)c4)[C@@]3(C)CC[C@@H]12", "note": "[Compound 106]", "IC50": "> 100"}, {"smiles": "COC[C@]12CC[C@@](C)(O)C[C@@H]1CC[C@H]1[C@@H]3CC[C@H](C(=O)c4ccc(OC)cc4)[C@@]3(C)CC[C@@H]12", "note": "[Compound 107]", "IC50": "50 to 100"}, {"smiles": "C[C@@]1(O)CC[C@H]2[C@H](CC[C@@H]3[C@@H]2CC[C@]2(C)[C@@H](C(=O)c4ccc(Cl)cc4)CC[C@@H]32)C1", "note": "[Compound 52]", "IC50": "20 to 50"}, {"smiles": "C[C@@]1(O)CC[C@@]2(C)[C@H](CC[C@@H]3[C@@H]2CC[C@]2(C)[C@@H](C(=O)c4ccc(-c5ccccc5)cc4)CC[C@@H]32)C1", "note": "[Compound 22]", "IC50": "50 to 100"}, {"smiles": "Cn1ccc(C(=O)[C@H]2CC[C@H]3[C@@H]4CC[C@H]5C[C@](C)(O)CC[C@]5(C)[C@H]4CC[C@]23C)n1", "note": "[Compound 123]", "IC50": "> 100"}]}, {"molecular_target": "T1, GABAA receptors α1β2γ2 (Homo sapiens, UniProt P14867+P47870)", "T1 construct": "expressed in transfected cells; host or cells: LTK (Ltk) cells, stably transfected", "T1 sequence (P14867 28-456)": "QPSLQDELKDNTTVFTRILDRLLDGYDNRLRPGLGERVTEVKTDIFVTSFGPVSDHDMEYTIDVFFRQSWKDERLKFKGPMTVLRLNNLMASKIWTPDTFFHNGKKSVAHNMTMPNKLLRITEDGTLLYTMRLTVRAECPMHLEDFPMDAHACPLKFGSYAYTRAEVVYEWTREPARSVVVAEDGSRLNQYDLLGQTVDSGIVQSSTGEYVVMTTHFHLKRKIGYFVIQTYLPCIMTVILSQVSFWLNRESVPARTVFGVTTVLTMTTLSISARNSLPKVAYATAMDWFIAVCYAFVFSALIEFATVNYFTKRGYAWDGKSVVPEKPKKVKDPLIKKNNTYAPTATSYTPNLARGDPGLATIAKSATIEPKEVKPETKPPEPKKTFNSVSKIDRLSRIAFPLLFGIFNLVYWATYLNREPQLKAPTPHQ", "T1 sequence (P47870 25-512 limits assumed)": "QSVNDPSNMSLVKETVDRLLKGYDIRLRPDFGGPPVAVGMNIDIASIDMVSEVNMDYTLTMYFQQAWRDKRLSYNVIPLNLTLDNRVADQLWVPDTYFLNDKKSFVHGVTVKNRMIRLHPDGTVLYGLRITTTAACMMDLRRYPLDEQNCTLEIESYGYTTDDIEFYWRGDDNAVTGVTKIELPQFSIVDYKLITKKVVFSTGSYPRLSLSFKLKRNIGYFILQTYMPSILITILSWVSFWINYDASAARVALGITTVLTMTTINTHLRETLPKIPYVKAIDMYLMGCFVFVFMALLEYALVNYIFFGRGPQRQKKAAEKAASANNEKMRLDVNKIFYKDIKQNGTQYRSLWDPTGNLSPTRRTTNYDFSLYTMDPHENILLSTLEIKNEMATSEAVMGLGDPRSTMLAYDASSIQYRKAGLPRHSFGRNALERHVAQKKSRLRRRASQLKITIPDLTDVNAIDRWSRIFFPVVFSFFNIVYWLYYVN", "T1 sequence (P18507 40-475 partner)": "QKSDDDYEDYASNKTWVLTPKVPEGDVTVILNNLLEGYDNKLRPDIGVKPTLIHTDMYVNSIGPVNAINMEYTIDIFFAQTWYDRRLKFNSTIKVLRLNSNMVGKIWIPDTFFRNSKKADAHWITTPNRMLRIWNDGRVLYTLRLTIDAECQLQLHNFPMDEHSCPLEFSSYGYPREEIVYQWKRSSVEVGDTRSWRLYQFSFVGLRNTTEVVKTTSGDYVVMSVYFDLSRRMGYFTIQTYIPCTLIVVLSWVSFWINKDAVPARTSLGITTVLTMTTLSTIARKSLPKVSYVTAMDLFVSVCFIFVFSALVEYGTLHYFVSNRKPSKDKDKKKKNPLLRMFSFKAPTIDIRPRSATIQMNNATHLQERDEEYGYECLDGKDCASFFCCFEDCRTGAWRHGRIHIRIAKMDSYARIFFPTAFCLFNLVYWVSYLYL", "experiment": "Patch clamp electrophysiology (QPatch) of recombinant GABAA receptors in Ltk cells", "type": "cell-based", "conditions": "10 μM test article, 2 μM GABA (EC20), Ltk cells stably transfected with α1β2γ2, relative percentage potentiation; read-out: GABA (α1β2γ2) Qpatch in Ltk, % efficacy at 10 μM", "method": "Patch Clamp Electrophysiology of Recombinant α1β2γ2 and α4β3δ GABAA Receptors\nCellular electrophysiology is used to measure the pharmacological properties of our GABAA receptor modulators in heterologous cell systems. Each compound is tested for its ability to affect GABA mediated currents at a submaximal agonist dose (GABA EC20=2 μM). LTK cells are stably transfected with the α1β2γ2 subunits of the GABA receptor and CHO cells are transiently transfected with the α4β3δ subunits via the Lipofecatamine method. Cells were passaged at a confluence of about 50-80% and then seeded onto 35 mm sterile culture dishes containing 2 ml culture complete medium without antibiotics or antimycotics. Confluent clusters of cells are electrically coupled (Pritchett et al., Science, 1988, 242, 1306-1308). Because responses in distant cells are not adequately voltage clamped and because of uncertainties about the extent of coupling (Verdoorn et al., Neuron 1990, 4, 919-928), cells were cultivated at a density that enables the recording of single cells (without visible connections to other cells).\nWhole cell currents were measured with HEKA EPC-10 amplifiers using PatchMaster software or by using the high throughput QPatch platform (Sophion). Bath solution for all experiments contained (in mM): NaCl 137 mM, KCl 4 mM, CaCl2 1.8 mM, MgCl2 1 mM, HEPES 10 mM, D-Glucose 10 mM, pH (NaOH) 7.4. […]", "units": {"Emax at 10 µM": "%"}, "values": [{"smiles": "C[C@@]1(O)CC[C@H]2[C@H](CC[C@@H]3[C@@H]2CC[C@]2(C)[C@@H](C(=O)c4nc5ccccc5s4)CC[C@@H]32)C1", "note": "[Compound 8]", "Emax at 10 µM": "100 to 500"}, {"smiles": "C[C@@]1(O)CC[C@H]2[C@H](CC[C@@H]3[C@@H]2CC[C@]2(C)[C@@H](C(=O)c4ccccc4)CC[C@@H]32)C1", "note": "[Compound 1]", "Emax at 10 µM": "> 500"}]}]}
